“Also recorded” adds a separate entry of the source.
Legend:
[1] = tested on: scPCP+ARS(2h) treated male C57BL/6J mice; assay: 10-min social interaction test in scPCP-treated mice given 2 h acute restraint stress (treatment-resistant model); type: in vivo; conditions: risperidone 0.2, olanzapine 1, aripiprazole 1 or pimavanserin 3 mg/kg ip alone, 45 min prior to test
Description: Briefly, mice were habituated to the test arena (i.e., the NOR box) for 30 minutes prior to the test day. Pairs of mice, unfamiliar to each other, received either the same treatment (e.g., vehicle and vehicle; N=10 pairs) or different treatments (e.g., vehicle; N=10 and phencyclidine (PCP) 10 mg/kg; N=10). After washout, they were placed in the test arena together for 10 minutes. A heavy object made of Plexiglas or metal was placed in the center of the test arena to quantify the time and nature of interaction of the test animals with an unfamiliar object or an unfamiliar animal. After the 10 min test phase, the object and the arena were cleaned with 70% ethanol to remove any olfactory trails. Behavior was recorded on video for subsequent blind scoring.
The following four behaviors were scored for each animal: • a) Sniffing: A normal mouse engages in sniffing the con-specific mouse's body, including the anogenital area • b) Following: A normal mouse pursues a con-specific mouse around the arena • c) Avoiding: A normal mouse avoids the con-specific mouse and move away from a pursuing mouse if approached • d) Object Exploration: A normal mouse explores the object that is placed in the center of the test arena.
Acute restraint stress (ARS) protocol: Mice were assigned to one of two groups: either the control group (non-stress) or the stress group. Generally, mice of the stress group were restrained in well-ventilated 50 mL tubes. After the restraint period of 1 or 2 hours, the mice were transferred into a clean animal housing cage for 1-hour interval and thereafter went through the first social interaction test (different mice are used to test different groups).
Treatment resistant animal model: To establish this model, Acute restraint stress (ARS) was added to scPCP treatment. Two groups (vehicle+ARS; scPCP+ARS) and their controls (vehicle+saline; scPCP+saline) were used. ARS was applied for 1 or 2 hours and tested on SI 1 hour post-ARS.
(§1) The behavioral assay, ARS protocol, and scPCP-treatment as described in Example 2 were used. To test the effect of atypical APD and pimavanserin, alone or as con-administration, in scPCP-treated mice (N=10 pairs of mice per group) given 2 h ARS, risperidone (“Risp”) was administered as 0.2 mg/kg or 0.4 mg/kg ip; olanzapine (“Olan”) as 1.0 mg/kg ip; aripiprazole (“Aripi”) as 1.0 mg/kg ip; and pimavanserin (“Pim”) as 3 mg/kg ip to scPCP+ARS(2h) treated male C57BL/6J mice 45 minutes prior to the commencement of the social interaction task in the 10 min social interaction test. Plasma levels of risperidone were measured using a Triple Quad 6500+ mass spectrometer.

[2] = Plasma levels of risperidone in scPCP and ARS-treated mice (mass spectrometer); type: in vivo; conditions: 3 mg/kg pimavanserin with 0.2 mg/kg risperidone
Description: as §1

Pharmacokinetic effect of pimavanserin on risperidone drug levels [2]: not due to a pharmacokinetic effect
Structure (SMILES): CC(C)COc1ccc(CNC(=O)N(Cc2ccc(F)cc2)C2CCN(C)CC2)cc1 [Pimavanserin, N-(4-Fluorophenylmethyl)-N-(1-methylpiperidin-4-yl)-N′-(4-(2-methylpropyloxy)phenylmethyl)carbamide]
Able to restore sniffing or decrease avoidance (SI deficit), drug alone [1]: Neither; also recorded: ineffective
